Data: the METLIN SMRT retention time set (Domingo-Almenara et al. 2019)

Assay: gradient 5% acetonitrile 3 min, to 50% in 2 min, to 85% in 15 min, held 3 min, 100 µL/min
Settings: column: Zorbax Extend-C18 2.1 x 50 mm; eluents: water / acetonitrile, 0.1% formic acid
How it was run: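 A Zorbax Extend-C18 column (2.1 × 50 mm, 1.8 μm) run at 100 μL/min with water and acetonitrile, both containing 0.1% formic acid, separated mixtures of ~100 pure standards. The HPLC was coupled to a quadrupole time-of-flight mass spectrometer operated in positive and negative ionization mode, with dead and dwell volumes of 40 μL and 900 μL. Each retention time was taken from a computationally picked adduct peak that was then manually inspected.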

| Structure (SMILES) | RP-LC retention time |
| --- | --- |
| O=C(NCc1ccc2c(c1)OCO2)c1ccc(-c2cccs2)nc1 | 863 s |
| Cc1nnc(N2CCCC(C(=O)N3CCC4(CC3)OCCO4)C2)c2nn(-c3ccccc3)c(C)c12 (stereo unspecified) | 660 s |
| O=C(Cn1ncc2c(c1=O)N(CC1CC1)C(=O)CS2)NCc1ccccc1Cl | 789 s |
| CC(C)CN1CCn2cc(C(=O)NCc3ccc(F)cc3F)nc2C1 | 608 s |
| OC[C@H]1O[C@@H](n2cnc3c(N[C@H]4CCC[C@@H]4O)ncnc32)[C@@H](O)C1O (stereo partly specified) | 590 s |
| COc1ccc(C)cc1S(=O)(=O)N1CCCC(c2nnc(COc3ccccc3)o2)C1 (stereo unspecified) | 891 s |
| COC[C@@H]1CN(Cc2ccc(F)c(Cl)c2)C[C@H]1c1nc(C)no1 | 580 s |
| Cc1ccc2nc(CN(C)Cc3ccc(Cl)cc3)cc(=O)n2c1 | 627 s |
| c1cc2c(cc1-c1noc(C3CCC3)n1)ncn2CCN1CCCC1 | 596 s |
| Cc1cc(NC(=O)Cn2nc(C(=O)N3CCOCC3)c3ccccc32)ccc1Br | 862 s |
| O=C(COc1ccc(F)c(F)c1)N1CCN(c2ncccc2-c2nnc(C3CC3)o2)CC1 | 822 s |
| CCOC(=O)N1CCN(C(=O)CSc2nncn2C)CC1 | 560 s |
| O=[N+]([O-])c1ccc(-c2cn(-c3ccc(Cl)cc3)cn2)cc1 | 933 s |
| COc1ccccc1CNC(=O)Cn1c(N)nc(C)cc1=O | 574 s |
| CC1=C(C(=O)OCCC#N)C(c2ccccc2Cl)NC(=O)N1 (stereo unspecified) | 668 s |
| O=C(COc1ncccn1)Nc1ccc(F)c(F)c1 | 665 s |
| Cc1ccc(C)c(NS(=O)(=O)c2c(C)sc(C)c2-c2n[nH]c(C)c2C)c1 | 1140 s |
| COCCOC1CCC12CCN(C(=O)c1occc1C)CC2 (stereo unspecified) | 779 s |
| CCOc1ccc(NC(=O)N2CCC(c3nc(C(=O)N4CCCC4)c(C)o3)CC2)cc1 | 764 s |
| CCn1cccc1-c1nc(-c2ccncc2)no1 | 833 s |
| O=C(Cn1cnc2ccccc2c1=O)N1CCCC(c2nnc(-c3ccccc3F)s2)C1 (stereo unspecified) | 730 s |
| O=C(CCC1CCN(c2cc(NC3CC3)ncn2)CC1)NCc1cc(F)cc(F)c1 | 673 s |
| O=C(Cn1nc2n(c1=O)CCCC2)N1CCN(c2ccccc2F)CC1 | 679 s |

| Structure (SMILES) | RP-LC retention time |
| --- | --- |
| COc1ccc(C2C(C(=O)N3CCOCC3)c3cc(OC)c(OC)cc3C(=O)N2C)cc1OC (stereo unspecified) | 637 s |
| CN1C(=O)Cc2cc(C(=O)N3CCCCC3)ccc21 | 652 s |
| O=C(Nc1ccccc1)N1CCC(CCNC(=O)C2(c3ccccc3)CC2)CC1 | 882 s |
| CCCCNC(=O)C1CCCN(C(=O)c2cc(C)cc(C)c2)C1 (stereo unspecified) | 828 s |
| Cc1ccccc1CSc1nnc2c(S(=O)(=O)N3CCCC3)cccn12 | 861 s |
| CC(C)n1c(CCNC(=O)c2ccc(F)cc2F)nc2cccnc21 | 671 s |
| O=C(NCCc1c[nH]c2ccccc12)C1CCCN(c2nn3c(=O)c4c(nc3s2)CCCC4)C1 (stereo unspecified) | 775 s |
| CCc1cccc(C)c1Nc1c(-c2ccc(OC)c(OC)c2)nc2cnccn12 | 805 s |
| COc1ccc(CCNC(=O)c2ccco2)cc1OC | 642 s |
| O=C(Nc1cc(F)ccc1F)Nc1c(-c2ccccc2)nc2ccccn12 | 677 s |
| CCc1cccc(NC(=O)C2CCN(S(=O)(=O)c3cc(C(=O)N4CCCC4)cs3)CC2)c1 | 892 s |
| Cc1cc(C)n(-c2cc(Nc3ccccc3)ncn2)n1 | 1010 s |
| CCCN1CCN(CCCNC(=O)c2ccc3c(c2)N(C)C(=O)C2CCCCN32)CC1 (stereo unspecified) | 597 s |
| Cc1ccc(S(=O)(=O)Nc2cccc(-c3cn4ccccc4n3)c2)cc1[N+](=O)[O-] | 681 s |
| CCn1cnc2cc(CNC(=O)c3ccc(C(F)(F)F)cc3)ccc21 | 651 s |
| CN1CCCn2cc(S(=O)(=O)Nc3ccc(Cl)cc3F)cc2C1=O | 727 s |
| COCC1CN(C2CCC2)CC12CCN(C(=O)c1ccsc1)CC2 (stereo unspecified) | 592 s |
| CC(C)CCNC(=O)Cn1c(=O)c2cnc(-c3ccc(Cl)cc3)nc2n(C)c1=O | 740 s |
| CCCN1C(=O)COc2ccc(-c3csc(NC(=O)CCC4CCCCC4)n3)cc21 | 1270 s |
| O=C(CSc1ccc(N2CCCC(C(=O)NC3CC3)C2)nn1)NCc1cccc(C(F)(F)F)c1 (stereo unspecified) | 678 s |
| Cn1ccc2cc(CCC(=O)N3CCCC3)ccc21 | 789 s |
| CCc1nc2c(=O)n(CC(=O)N3CCCC3)nc(C)c2s1 | 620 s |
| CCn1nc(C)c(-c2cc(C(=O)NCC34CCC=C3N(C)C(=O)CC4)no2)c1C (stereo unspecified) | 741 s |

| Structure (SMILES) | RP-LC retention time |
| --- | --- |
| Cc1ccc(C)c(CS(=O)(=O)N2CCc3nc(-c4ccc(Cl)cc4)ncc3C2)c1 | 1290 s |
| CCOC(=O)c1sc(NC(C)=O)nc1-c1ccccc1 | 848 s |
| Cc1ccc(C(=O)N2C[C@@H]3C[C@H]2C[C@@H]3NS(C)(=O)=O)s1 | 595 s |
| Cc1ccc(CNC(=O)N2CCCC(C)(C(=O)NCc3ccc(F)cc3)C2)cc1 (stereo unspecified) | 890 s |
| CCc1ccc(NC(=O)C2CC(=O)N(CCc3c[nH]c4ccc(OC)cc34)C2)cc1 (stereo unspecified) | 831 s |
| COc1ccc(-c2nc3ccc(Br)cn3c2Nc2ccc(C)cc2)cc1O | 742 s |
| CC1CCN(S(=O)(=O)c2cccn(Cc3cc(F)cc(F)c3)c2=O)CC1 | 974 s |
| O=C(c1ccc(F)c(Cl)c1)N1CCC(n2c(-c3ccoc3)nc3cccnc32)C1 (stereo unspecified) | 735 s |
| Cc1cc2nc(Nc3nc(SCc4ccc(Cl)cc4)cc(=O)[nH]3)nc(C)c2cc1C | 1110 s |
| C[C@]12CCC3=C4CCC(=O)C=C4CC[C@H]3[C@@H]1CC[C@@]2(O)CC#N | 796 s |
| COc1c(C(=O)NC2CCCC2)sc2ccc(F)cc12 | 1080 s |
| O=C(NCc1ccc(-c2noc(-c3n[nH]c4c3CCCC4)n2)s1)C1CC1 | 786 s |
| O=C(Cc1ccccc1Br)NCC(=O)N1CCCc2ccccc21 | 862 s |
| CCCCn1nnc(NCc2ccc(-c3cccc(Cl)c3)o2)n1 | 1150 s |
| CC12CCC(C(=O)Nc3ccc(Cl)cn3)(OC1=O)C2(C)C (stereo unspecified) | 890 s |
| Clc1cc(Br)ccc1-c1ccc(CNCc2cccnc2)o1 | 664 s |
| Cc1csc(-c2cc(S(=O)(=O)Nc3ccc(F)cc3)cn2CC(=O)N2CCCC2)n1 | 853 s |
| Brc1ccc(OCc2nn3c(C4COc5ccccc5O4)nnc3s2)cc1 (stereo unspecified) | 1040 s |
| COc1cccc2c1OC1(C)CC2C(S(=O)(=O)c2ccc(C)c(C)c2)C(=O)N1 (stereo unspecified) | 888 s |
| Cc1ccc(S(=O)(=O)CCC(=O)N2CCCC2c2nc(-c3ccc(Cl)cc3)no2)cc1 (stereo unspecified) | 1060 s |
| Cc1ccc(-c2noc(Cn3ncn4nc(-c5ccc(C)cc5C)cc4c3=O)n2)cc1 | 1270 s |
| CC(C)NCC(O)COc1ccccc1-n1cccc1 (stereo unspecified) | 701 s |
| COc1ccc(S(=O)(=O)N2CCC(c3cnn(-c4ccc(C)cc4)c3)CC2)cc1 | 1110 s |

| Structure (SMILES) | RP-LC retention time |
| --- | --- |
| O=c1c2cc(-c3ccc4c(c3)OCO4)nn2ccn1Cc1nc(-c2ccc(F)c(Cl)c2)no1 | 805 s |
| Cc1ccc(Nc2c(-c3ccccc3)nc3cnccn23)c(C)c1 | 982 s |
| CC(=O)N(C)CCc1noc(-c2ccc(C(=O)NCCC(C)C)cc2)n1 | 733 s |
| COc1ccccc1NC(=O)N1CCC(c2cc(N)on2)CC1 | 678 s |
| CCN1CCN(S(=O)(=O)c2cc(-c3nc(C)cs3)n(CC(=O)N3CCCCC3)c2)CC1 | 675 s |
| O=C(c1cccs1)N1CCCN(c2ccc(=O)n(-c3ccccc3)n2)CC1 | 700 s |
| N#Cc1ccc(C(=O)NC2CC(=O)N(Cc3ccccc3)C2)cc1 (stereo unspecified) | 768 s |
| CC(C)Cn1cc(CCNC(=O)c2cccc(C(F)(F)F)c2)c2cccnc21 | 940 s |
| CCCS(=O)(=O)N1CCC(Cc2nc(-c3cccnc3)n[nH]2)C1 (stereo unspecified) | 583 s |
| CCc1c(C2CCN(C(=O)c3ccn(CC)n3)CC2)noc1N | 644 s |
| O=C(CN1C(=O)CCS(=O)(=O)c2ccccc21)NCCc1ccccc1 | 745 s |
| COc1ccc(C(=O)n2c(SC)nc3ccccc32)cc1OC | 827 s |
| CCC(=O)n1nc(-c2ccccc2Cl)nc1N | 837 s |
| Cc1ccc(-c2nc3nc(C)cc(C)n3c2Nc2c(C)cccc2C)cc1 | 806 s |
| Cc1cccc(OCc2nc(CCN(C)C(=O)Nc3cc(F)ccc3F)no2)c1 | 1000 s |
| CCN(CC)S(=O)(=O)c1ccc(C(=O)Nc2nc3c(s2)CCc2ccccc2-3)cc1 | 738 s |
| O=C(c1cc(F)ccc1F)N1CCC(OCC2CC2)C1 (stereo unspecified) | 772 s |
| CC1(C(=O)NC2CCCCCC2)CN(S(C)(=O)=O)CC(=O)N1c1cccc(Cl)c1 (stereo unspecified) | 882 s |
| CC(=O)NCc1csc(C2CCCN(C(=O)COc3ccccc3)C2)n1 (stereo unspecified) | 670 s |
| CCC(C)NC(=O)N1CCCN(C2=NS(=O)(=O)C(c3ccc(Cl)cc3)=C2C)CC1 (stereo unspecified) | 825 s |
| O=C(NC1CCCCCC1)C1CCCN(C(=O)c2ccc(F)c(F)c2)C1 (stereo unspecified) | 856 s |
| Cc1nn(CC(=O)NCc2ccco2)c(=O)c2c(C)n(-c3ccccc3)nc12 | 764 s |
